The text below walks through data of patent US10071976B2, “Small molecule fatty acid synthase inhibitors” (Sanford Burnham Prebys Medical Discovery Institute, priority 2014, dated 2018).

A short description of series [1]: Aqueous solubility in 1x PBS, pH 7.4. The series is classed as physicochemical. The conditions noted are these: pH 7.4, aqueous buffer.
Another series deals with T1, FASN thioesterase (Homo sapiens, UniProt P49327).
T1 construct: label the active site of the FASN thioesterase and ACOT4
T1 sequence (P49327 2207-2511 limits assumed): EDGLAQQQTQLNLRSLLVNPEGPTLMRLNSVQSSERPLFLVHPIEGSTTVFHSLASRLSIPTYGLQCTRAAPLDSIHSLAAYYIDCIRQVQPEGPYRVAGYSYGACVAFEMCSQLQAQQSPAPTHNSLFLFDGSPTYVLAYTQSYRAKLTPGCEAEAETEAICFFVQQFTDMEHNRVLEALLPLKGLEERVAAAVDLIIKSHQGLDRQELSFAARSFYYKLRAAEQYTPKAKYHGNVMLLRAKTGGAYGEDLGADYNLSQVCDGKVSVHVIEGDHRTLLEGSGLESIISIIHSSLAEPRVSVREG
Description: FP-PEG-TAMRA labeling of recombinant FASN thioesterase. Type of series: binding. The conditions noted are these: recombinant enzyme, 20 μM final, pH 7.8. As for the experimental part: (§1) Additionally, studies were performed to test the selectivity of Compounds 1, 16, 22, and 37 for the FASN thioesterase over its most closely related human homolog, the enzyme called ACOT4 (see FIG. 3). Both proteins were mixed and pretreated with the compound (20 μM final, pH 7.8) before addition of the fluorescent activity probe FP-PEG-TAMRA. Respective fluorescence of the bands was detected on a Hitachi flatbed scanner and a greyscale version used for quantitative analysis using ImageJ. Recombinant forms of each enzyme were incubated with compound 16, compound 1, compound 37, and compound 22. FP-TAMRA was included in this mixture to label the active site of the FASN thioesterase and ACOT4. […] These findings further attest to the high degree of selectivity of compounds 1, 16, 37 and 22 for the FASN thioesterase.

The test system of series [2] is prostate cancer PC-3 cells. The experiment in a line: De novo palmitate synthesis from 13C-glucose in whole cells (GC-MS). Type of series: cell-based. As for the experimental part:
The ability of compounds to block biosynthesis of palmitate in whole cells (prostate cancer PC-3 cells) was measured by feeding cells isotopically labeled glucose (^13C-glucose) and measuring the incorporation of ^13C into palmitate by GC-MS.
Prostate cancer PC-3 cell were incubated with 20 μM of FASN inhibitors and labeled with [U-13C]-glucose for 24 h, pH 7.8. The incorporation of ^13C into palmitate from labeled glucose was determined by extracting fatty acids and resolving them by GC-MS. The mass distributions for fatty acid methyl esters for C16:0 (palmitate) were corrected for isotope natural abundance, and the corrected isotope patterns were used to calculate the labeling of acetyl-CoA in palmitate based on a binomial probability distribution of the incorporation of labeled acetyl units into the fatty acid chain.

Series [3] can be described thus: Hepatic microsome stability, human. Type of series: in vitro ADME. An excerpt: The microsomal stability assay is commonly used to rank compounds according to their metabolic stability. This assay addresses the pharmacologic question of how long the parent compound will remain circulating in plasma within the body.
Series [4] can be described thus: Plasma protein binding, human. Type of series: in vitro ADME. An excerpt: Plasma protein binding was a measure of a drug's efficiency to bind to the proteins within blood plasma. The less bound a drug is, the more efficiently it can traverse cell membranes or diffuse. […] In contrast, drugs that remain largely unbound in plasma are generally available for distribution to other organs and tissues.

The next series addresses T2, ACOT4 (Homo sapiens, UniProt Q8N9L9).
T2 sequence (Q8N9L9 1-421): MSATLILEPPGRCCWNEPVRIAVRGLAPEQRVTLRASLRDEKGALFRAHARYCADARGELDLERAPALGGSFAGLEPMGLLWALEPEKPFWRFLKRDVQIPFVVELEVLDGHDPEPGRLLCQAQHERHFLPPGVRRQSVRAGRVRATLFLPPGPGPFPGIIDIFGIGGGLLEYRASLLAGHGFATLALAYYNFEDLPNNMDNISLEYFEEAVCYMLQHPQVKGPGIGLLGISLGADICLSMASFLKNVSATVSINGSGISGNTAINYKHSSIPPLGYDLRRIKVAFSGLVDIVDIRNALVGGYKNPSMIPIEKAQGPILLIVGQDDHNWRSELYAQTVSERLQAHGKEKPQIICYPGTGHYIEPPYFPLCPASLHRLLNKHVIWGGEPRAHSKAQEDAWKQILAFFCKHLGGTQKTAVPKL
Description: FP-PEG-TAMRA labeling of recombinant ACOT4. Type of series: binding. The conditions noted are these: recombinant enzyme, 20 μM final, pH 7.8. As for the experimental part:
as §1

The target of a further series is FASN-TE (Homo sapiens, UniProt P49327). Description: In-vitro biochemical assay measuring FAS-TE inhibition (OMFH substrate, fluorescence). Here is the method:
Min wells: Substrate+No enzyme+DMSO, Max wells: Substrate+Enzyme+DMSO, Sample wells: Substrate+Enzyme+Test compounds, Reference compound: Orlistat (make a fresh 10 mM stock in DMSO each time). 384-well black, low-volume plate (Greiner #784076)
Assay Protocol: • 1) ECHO transfer 160 nL of 125× Compound (or DMSO for control wells) per well. • 2) For Max and Sample wells: Add 10 μL of Enzyme (2×; 1.8 μM) prepared in RXN Buffer. For Min wells: Add 10 μL of RXN Buffer (No Enzyme). • 3) For all wells: Add 10 μL of Substrate (2×; 20 μM) prepared in diH2O+10% DMSO. • 4) Centrifuge plate for 1 minute at 1,000 rpm. • 5) Measure fluorescence every 5 minutes for 1-1.5 hours using the BMG POLARstar (ex 485 nm/em 520 nm; Gain=1015; 25 flashes). • 6) All volumes can be adjusted but the final DMSO concentration should be kept at about 6%.
Data Analysis: • 1) Calculate slopes and express as % Activity (Min wells=0%; Max wells=100%). • 2) Then, using Prism, calculate the IC50 values.

A short description of series [5]: Aqueous solubility in pION's buffer. Type of series: physicochemical.
Another series in a line: Plasma stability, human. Type of series: in vitro ADME. An excerpt:
Plasma stability is a measure of the stability of small molecules and peptides in plasma and is an important parameter, which can strongly influence the in vivo efficacy of a test compound. Drug candidates are exposed to enzymatic processes (proteinases, esterases) in plasma, and they can undergo intramolecular rearrangement or bind irreversibly (covalently) to proteins.

Where “and” joins values, the source holds several entries; their conditions need not be identical. Identical values can stand only once.

Chain of FASN-TE (P49327 2207-2511 limits assumed): as the sequence (P49327 2207-2511 limits assumed) above

Consider `CCC(CC)C(=O)Nc1nc(-c2ccc(S(=O)(=O)N3CCOCC3)cc2)cs1` [Compound 16, 2-Ethyl-N-(4-(4-(morpholinosulfonyl)phenyl)thiazol-2-yl)butanamide], for which the solubility (in general, the concentration that dissolves in the medium under given conditions) was 0.02 µg/mL and 0.05 µM in series [1]; 0.19 µg/mL and 0.45 µM in [5] (aqueous buffer, pH 5.0); 0.06 µg/mL and 0.14 µM in [5] (pH 6.2, aqueous buffer); 0.13 µg/mL and 0.31 µM in series [5] (pH 7.4, aqueous buffer). Further, the “binding of FP-TAMRA to the active site of the FASN thioesterase” value at FASN thioesterase is “blocked the binding of FP-TAMRA”. In addition, the “inhibition of palmitate synthesis in whole cells” value in series [2] is “inhibitory activity”. Moreover, the “de novo palmitate synthesis/DMSO (%)” value in series [2] (20 μM, [U-13C]-glucose 24 h, pH 7.8, relative to DMSO control) is 50%. The “Hepatic Microsome Stability (% Remaining at 1 hr)” value in series [3] (Human, 1 hr) was 4.93%. In addition, the “liver microsome stability” value in [3] (human liver microsomes) is given as “poor stability”. Besides, the fraction unbound at 1 μM in series [4] (plasma, Human, 1 μM, read-out: Plasma Protein Binding (% Bound) (converted)) was 0.034. In addition, the fraction unbound at 10 μM in series [4] (plasma, Human, 10 μM, read-out: Plasma Protein Binding (% Bound) (converted)) was 0.0253. Also, the “plasma protein binding” value in series [4] (species not given) is listed as “highly plasma protein bound”. In addition, the “activity labeling of ACOT4” value on ACOT4 is given as “without effect”. The IC50 (usually the concentration needed to halve the response being measured) against FASN-TE is 334 nM. Further, the “Plasma Stability (% Remaining at 3 hrs)” value in “Plasma stability, human” (Human, 3 hrs) was 100/100%. The “plasma stability” value in the series “Plasma stability, human” (human plasma) is recorded as “good stability”.
